{"source": "paper PMC12775434", "about": "“Ultra-large virtual screening unveils potent agonists of the neuromodulatory orphan receptor GPR139” (Nature Communications, 2025)", "key": {"GPR139 [1]": {"target": "T1, GPR139 (Homo sapiens, UniProt Q6DWJ6)", "T1 sequence (Q6DWJ6 1-353)": "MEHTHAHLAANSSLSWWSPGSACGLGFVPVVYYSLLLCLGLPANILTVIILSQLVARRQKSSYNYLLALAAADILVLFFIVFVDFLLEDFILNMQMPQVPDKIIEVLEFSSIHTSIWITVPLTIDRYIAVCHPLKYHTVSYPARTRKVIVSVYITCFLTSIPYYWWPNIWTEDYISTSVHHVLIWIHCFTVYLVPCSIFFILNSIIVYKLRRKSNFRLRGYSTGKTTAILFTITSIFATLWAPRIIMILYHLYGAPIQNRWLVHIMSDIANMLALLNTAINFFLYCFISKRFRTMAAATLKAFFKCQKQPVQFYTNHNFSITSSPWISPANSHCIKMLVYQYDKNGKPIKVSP", "test": "Inositol monophosphate (IP1) accumulation assay, GPR139-CHOk1", "type": "cell-based"}, "GPR139 [2]": {"target": "T1, GPR139", "test": "Ca2+ mobilization assay, antagonist mode (EC80 800 nM Lundbeck Cmp 1a after 20 min preincubation), GPR139-CHOk1", "type": "cell-based", "details": "individual replicates", "in_short": "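Fluo-4-loaded GPR139-CHOk1 cells in HEPES-buffered HBSS (pH 7.4, 2.5 mM probenecid) given test compounds at 10 µM, then after 20 min challenged with 800 nM Lundbeck Cmp 1a (EC80). Calcium fluorescence read at 37 °C, 485/525 nm.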"}}, "note": "“And” between values parts separate entries of the source, which are not always exact repeats. Equal entries are not always repeated."}
{"smiles": "COc1cc(OC)cc(C(=O)NNC(=O)Nc2cccc3ccccc23)c1", "note": "[Lundbeck Cmp 1a, reference compound]", "values": [{"measurement": "EC50", "setting": "GPR139 [1]; Supplementary Table 2, mean ± SEM, read-out: pEC50 IP1 (converted)", "value": 501, "unit": "nM"}, {"measurement": "IP1 response (% of Cmp 1a)", "setting": "GPR139 [1]; log [Compound] M -4.5, replicate experiments", "value": "68 % of Cmp 1a and 118 % of Cmp 1a and 94 % of Cmp 1a and 117 % of Cmp 1a and 98 % of Cmp 1a and 86 % of Cmp 1a and 109 % of Cmp 1a"}, {"measurement": "IP1 response (% of Cmp 1a)", "setting": "GPR139 [1]; log [Compound] M -5.0, replicate experiments", "value": "78 % of Cmp 1a and 115 % of Cmp 1a and 96 % of Cmp 1a and 112 % of Cmp 1a and 133 % of Cmp 1a and 94 % of Cmp 1a and 86 % of Cmp 1a and 118 % of Cmp 1a"}, {"measurement": "IP1 response (% of Cmp 1a)", "setting": "GPR139 [1]; log [Compound] M -5.5, replicate experiments", "value": "88 % of Cmp 1a and 100 % of Cmp 1a and 81 % of Cmp 1a and 120 % of Cmp 1a and 61 % of Cmp 1a and 70 % of Cmp 1a and 104 % of Cmp 1a"}, {"measurement": "IP1 response (% of Cmp 1a)", "setting": "GPR139 [1]; log [Compound] M -6.0, replicate experiments", "value": "58 % of Cmp 1a and 80 % of Cmp 1a and 57 % of Cmp 1a and 63 % of Cmp 1a and 85 % of Cmp 1a and 49 % of Cmp 1a and 68 % of Cmp 1a and 66 % of Cmp 1a"}, {"measurement": "IP1 response (% of Cmp 1a)", "setting": "GPR139 [1]; log [Compound] M -6.5, replicate experiments", "value": "29 % of Cmp 1a and 32 % of Cmp 1a and 26 % of Cmp 1a and 50 % of Cmp 1a and 44 % of Cmp 1a and 31 % of Cmp 1a and 21 % of Cmp 1a"}, {"measurement": "IP1 response (% of Cmp 1a)", "setting": "GPR139 [1]; log [Compound] M -7.0, replicate experiments", "value": "7.48 % of Cmp 1a and 13 % of Cmp 1a and 2.79 % of Cmp 1a and 11 % of Cmp 1a and 21 % of Cmp 1a and 9 % of Cmp 1a and 3.75 % of Cmp 1a and 17 % of Cmp 1a"}, {"measurement": "IP1 response (% of Cmp 1a)", "setting": "GPR139 [1]; log [Compound] M -7.5, replicate experiments", "value": "6 % of Cmp 1a and 4.58 % of Cmp 1a and 1.86 % of Cmp 1a and 3 % of Cmp 1a and 16 % of Cmp 1a and 1.22 % of Cmp 1a and 0.482 % of Cmp 1a and 2.32 % of Cmp 1a"}, {"measurement": "IP1 response (% of Cmp 1a)", "setting": "GPR139 [1]; log [Compound] M -8.0, replicate experiments", "value": "1.17 % of Cmp 1a and 1.86 % of Cmp 1a and 0.194 % of Cmp 1a and 1 % of Cmp 1a and 1.43 % of Cmp 1a and -8 % of Cmp 1a and -2.66 % of Cmp 1a and -4 % of Cmp 1a"}, {"measurement": "IP1 response (% of Cmp 1a)", "setting": "GPR139 [1]; log [compound] M -4.5, individual replicates", "value": "98 % of Cmp 1a and 68 % of Cmp 1a and 86 % of Cmp 1a and 109 % of Cmp 1a"}, {"measurement": "IP1 response (% of Cmp 1a)", "setting": "GPR139 [1]; log [compound] M -5.0, individual replicates", "value": "133 % of Cmp 1a and 94 % of Cmp 1a and 86 % of Cmp 1a and 118 % of Cmp 1a"}, {"measurement": "IP1 response (% of Cmp 1a)", "setting": "GPR139 [1]; log [compound] M -5.5, individual replicates", "value": "120 % of Cmp 1a and 61 % of Cmp 1a and 70 % of Cmp 1a and 104 % of Cmp 1a"}, {"measurement": "IP1 response (% of Cmp 1a)", "setting": "GPR139 [1]; log [compound] M -6.0, individual replicates", "value": "85 % of Cmp 1a and 49 % of Cmp 1a and 68 % of Cmp 1a and 66 % of Cmp 1a"}, {"measurement": "IP1 response (% of Cmp 1a)", "setting": "GPR139 [1]; log [compound] M -6.5, individual replicates", "value": "50 % of Cmp 1a and 44 % of Cmp 1a and 31 % of Cmp 1a and 21 % of Cmp 1a"}, {"measurement": "IP1 response (% of Cmp 1a)", "setting": "GPR139 [1]; log [compound] M -7.0, individual replicates", "value": "21 % of Cmp 1a and 9 % of Cmp 1a and 3.75 % of Cmp 1a and 17 % of Cmp 1a"}, {"measurement": "IP1 response (% of Cmp 1a)", "setting": "GPR139 [1]; log [compound] M -7.5, individual replicates", "value": "16 % of Cmp 1a and 1.22 % of Cmp 1a and 0.482 % of Cmp 1a and 2.32 % of Cmp 1a"}, {"measurement": "IP1 response (% of Cmp 1a)", "setting": "GPR139 [1]; log [compound] M -8.0, individual replicates", "value": "1.43 % of Cmp 1a and -8 % of Cmp 1a and -2.66 % of Cmp 1a and -4 % of Cmp 1a"}, {"measurement": "Emax", "setting": "GPR139 [1]; read-out: Emax (%) IP1", "value": "101 ± 12", "unit": "%"}, {"measurement": "Ca2+ signal (% of Cmp 1a)", "setting": "GPR139 [2]; 10 µM compound + 800 nM Cmp 1a", "value": "6.33 % of Cmp 1a and 14 % of Cmp 1a and 11 % of Cmp 1a"}, {"measurement": "Ca2+ signal (% of Cmp 1a)", "setting": "GPR139 [2]; Vehicle + 800 nM Cmp 1a", "value": "92 % of Cmp 1a and 84 % of Cmp 1a and 83 % of Cmp 1a"}, {"measurement": "Ca2+ signal (% of Cmp 1a)", "setting": "GPR139 [2]; Vehicle + 10 µM Cmp 1a", "value": "100 % of Cmp 1a"}]}
